According to patent US5989832A, “Method for screening for non-tetracycline efflux pump inhibitors” (Microcide Pharmaceuticals, Inc., priority 1995, dated 1999):
Entries after “also recorded” stand apart in the source; their conditions may differ. Like-named read-outs stand apart in the source and are kept apart here. Peptide text beside a SMILES is read from it.

How the values were obtained:
mexA-mexB-oprM = conditions: insertion mutagenesis; cited from earlier work
[1] = system: wild-type strains of P. aeruginosa; conditions: cited from earlier work
P. aeruginosa K799/61 [2] = conditions: mutant strain k799/61; cited from earlier work
[3] = system: P. aeruginosa strain 799/61; assay: [3H]-tetracycline accumulation assay, strain 799/61 without efflux pumps; format: cell-based, Pseudomonas aeruginosa; conditions: CCCP added
Experimental: A tetracycline accumulation assay was set up to measure the activity of efflux pumps in P. aeruginosa. The assay measures the accumulation of [3H]-tetracycline in bacteria and was optimized for measuring tetracycline accumulation in P. aeruginosa.
A new tetracycline steady state equilibrium is reached when CCCP is added to the cell suspension and pH equilibrates in both sides of the membrane.

AcrAE efflux system = conditions: cited from earlier work
[4] = system: P. aeruginosa PAO1, PAO4098E, K385 and 799/61; assay: Tetracycline accumulation in four P. aeruginosa strains (basal level); format: cell-based, Pseudomonas aeruginosa
Description: Alternatively, efflux pumps are identified by their ability to lower the accumulation of a substrate in a cell. Efflux pumps involved in drug resistance can be identified because they confer resistance to antibiotics. Efflux pumps involved in multidrug resistance in bacteria usually give an intermediate level of resistance to a broad range of antibiotics. Specific mechanism of resistance, including specific efflux pumps, give a much higher level of resistance to one antibiotic or a group of structurally related antibiotics. […] To identify whether an efflux pump is involved in antibiotic resistance in a given strain, accumulation experiments should be performed using antibiotics that it is suspected are exported by the efflux pump. The protein pattern in electrophoresis of cytoplasmic membrane proteins should be studied to identify the overexpression of a protein or the appearance of a new band in the protein pattern using gel electrophoresis. For Gram-negative bacteria, the outer membrane proteins should also be studied. Since efflux pumps are a common occurrence in most bacteria, the basal level of antibiotic susceptibility of a wild type might be caused by naturally occurring efflux pumps. […] Mutants that overexpress the pumps can be isolated using antibiotic-containing media. These mutants will be more resistant to antibiotics and will accumulate lower levels of antibiotics. […]

E. coli HN818 = assay: Susceptibility to acridine orange, AcrAB pump deficient strain HN818; format: cell-based; conditions: acridine orange alone
Description: The effect of L-phenylalanyl-L-arginyl-β-naphthylamide was also studied on an AcrAB pump deficient mutant of E. coli which was obtained by transposon mutagenesis in the laboratory of H. Nikaido.

P. aeruginosa K385 = conditions: cited from earlier work
P. aeruginosa K799/61 [5] = assay: Susceptibility to tetracycline and ciprofloxacin, pump deficient mutant K799/61
[6] = system: P. aeruginosa strain K385; assay: microbe, parasite or virus in culture; format: cell-based; conditions: Pseudomonas aeruginosa, K385, 20 h, read-out: growth inhibition in the absence of ciprofloxacin

## O=C(N[C@H](CO)[C@H](O)c1ccc([N+](=O)[O-])cc1)C(Cl)Cl [chloramphenicol]
mexA-mexB-oprM
  susceptibility of the strain with inactivated operon: almost as susceptible as E. coli
[1]
  efflux by wild-type strains: very effectively
P. aeruginosa K799/61 [2]
  capability of pumping out: essentially incapable of pumping out

## N#CC(C#N)=NNc1cccc(Cl)c1 [CCCP, carbonyl cyanide m-chlorophenylhydrazone]
[3]
  tetracycline accumulation: lowered the tetracycline accumulation

## acriflavine
AcrAE efflux system; acrA mutant vs wild type
  steady-state accumulation of acriflavine: increases at least fivefold
AcrAE efflux system; wild-type acrA+ strain
  steady-state accumulation of acriflavine: extremely low

## CN(C)C1C(=O)C(C(N)=O)=C(O)C2(O)C(=O)C3=C(O)c4c(O)cccc4C(C)(O)C3CC12 (stereo not shown) [tetracycline]
[4]; PAO4098E and K385
  tetracycline accumulation, efflux pump overproducer strains: accumulated lower amounts of tetracycline
[4]; strain 799/61
  intracellular accumulation of tetracycline, strain 799/61 versus others: highest internal concentration; also recorded: accumulated more tetracycline than the wild type PAO1
mexA-mexB-oprM
  susceptibility of the strain with inactivated operon: almost as susceptible as E. coli
[1]
  efflux by wild-type strains: very effectively
P. aeruginosa K799/61 [2]
  capability of pumping out: essentially incapable of pumping out

## CN(C)c1ccc2cc3ccc(N(C)C)cc3nc2c1 [acridine orange]
E. coli HN818
  susceptibility of HN818 to acridine orange versus parent strain: more susceptible to acridine orange than the parent strain

## CCn1cc(C(=O)O)c(=O)c2cc(F)c(N3CCNCC3)cc21 [norfloxacin]
[1]
  efflux by wild-type strains: very effectively

## c1ccc(-c2ccccn2)nc1 [2,2'-dipyridyl]
P. aeruginosa K385
  susceptibility associated with production of a 50-kDa outer membrane protein: decreased susceptibility

## N=C(N)NCCC[C@H](NC(=O)[C@@H](N)Cc1ccccc1)C(=O)Nc1ccc2ccccc2c1 [L-phenylalanyl-L-arginyl-β-naphthylamide] (HELM PEPTIDE1{F.R.[c1ccc2cc(N[*:1])ccc2c1]}$$$$V2.0)
P. aeruginosa K799/61 [5]
  effect on susceptibility to tetracycline and ciprofloxacin: no effect
[6]
  inhibition at 10 µg/mL: 1%
